Reference: the CheMixHub viscosity set

Test: xn = mol fraction of the nth substance listed

C1COCCO1 + CCCCCCC
viscosity [mPa·s], 101 kPa
Details | x1 = 0.1112 | x1 = 0.225 | x1 = 0.3223 | x1 = 0.4312 | x1 = 0.5017 | x1 = 0.6114 | x1 = 0.7213 | x1 = 0.8211 | x1 = 0.9112
308.15 K | 0.363 | 0.396 | 0.422 | 0.471 | 0.505 | 0.572 | 0.658 | 0.76 | 0.875
313.15 K | 0.354 | 0.381 | 0.409 | 0.446 | 0.475 | 0.535 | 0.618 | 0.713 | 0.814
318.15 K | 0.336 | 0.362 | 0.387 | 0.421 | 0.449 | 0.504 | 0.579 | 0.666 | 0.764

C1COCCO1 + CCCCCCCC
viscosity [mPa·s], 101 kPa
Details | x1 = 0.1324 | x1 = 0.2242 | x1 = 0.3234 | x1 = 0.4124 | x1 = 0.5114 | x1 = 0.6124 | x1 = 0.7332 | x1 = 0.8231 | x1 = 0.9222
308.15 K | 0.453 | 0.462 | 0.478 | 0.503 | 0.542 | 0.596 | 0.68 | 0.766 | 0.881
313.15 K | 0.431 | 0.44 | 0.452 | 0.476 | 0.512 | 0.561 | 0.64 | 0.717 | 0.828
318.15 K | 0.41 | 0.417 | 0.429 | 0.45 | 0.484 | 0.529 | 0.601 | 0.672 | 0.776

Brc1ccccc1 + CCCCCCCCCCCCCC
viscosity [mPa·s], 101 kPa
Details | x2 = 0.1001 | x2 = 0.2007 | x2 = 0.3005 | x2 = 0.3996 | x2 = 0.4985 | x2 = 0.5998 | x2 = 0.6987 | x2 = 0.8012 | x2 = 0.9011
298.15 K | 1.117 | 1.185 | 1.287 | 1.389 | 1.49 | 1.592 | 1.694 | 1.796 | 1.897
303.15 K | 1.042 | 1.13 | 1.218 | 1.306 | 1.394 | 1.482 | 1.57 | 1.658 | 1.746
308.15 K | 0.985 | 1.06 | 1.137 | 1.213 | 1.289 | 1.365 | 1.441 | 1.517 | 1.593

Brc1ccccc1 + CCCCCO
293.15 K, 101.33 kPa
Details | viscosity [mPa·s]
x2 = 0.0631 | 1.14
x2 = 0.1715 | 1.212
x2 = 0.2092 | 1.252
x2 = 0.2807 | 1.335
x2 = 0.3259 | 1.398
x2 = 0.3831 | 1.512
x2 = 0.4182 | 1.57
x2 = 0.4909 | 1.716
x2 = 0.5969 | 2.011
x2 = 0.6886 | 2.346
x2 = 0.7544 | 2.636
x2 = 0.8796 | 3.294

C1=C[C@H]2[C@@H](C1)[C@H]1C=C[C@@H]2C1 + CCCCCO
viscosity [mPa·s], 101.2 kPa
Details | x1 = 0.1058 | x1 = 0.1953 | x1 = 0.3 | x1 = 0.4005 | x1 = 0.498 | x1 = 0.5999 | x1 = 0.7018 | x1 = 0.8009 | x1 = 0.8999
293.15 K | 3.719 | 3.558 | 3.422 | 3.307 | 3.279 | 3.283 | 3.368 | 3.522 | 3.876
303.15 K | 2.86 | 2.734 | 2.63 | 2.569 | 2.547 | 2.575 | 2.648 | 2.784 | 3.037
313.15 K | 2.201 | 2.126 | 2.062 | 2.032 | 2.035 | 2.075 | 2.14 | 2.259 | 2.466

Ic1ccccc1 + CCCCCO
293.15 K, 101.33 kPa
Details | viscosity [mPa·s]
x2 = 0.1 | 1.665
x2 = 0.2 | 1.694
x2 = 0.25 | 1.709
x2 = 0.3834 | 1.864
x2 = 0.4289 | 1.94
x2 = 0.5101 | 2.098
x2 = 0.7761 | 2.915
x2 = 0.8055 | 3.043
x2 = 0.8184 | 3.1
x2 = 0.8554 | 3.273
x2 = 0.9419 | 3.7
x2 = 0.975 | 3.867

C#Cc1ccccc1 + CCCCCOC(C)=O
Details | viscosity [mPa·s]
298.15 K, 101 kPa, x1 = 0.0691 | 0.791

C1COCCO1 + CCCCO
298.15 K, 101 kPa
Details | viscosity [mPa·s]
x1 = 0.0346 | 2.264
x1 = 0.127 | 1.806
x1 = 0.5 | 1.272
x1 = 0.5917 | 1.099
x1 = 0.6726 | 1.074
x1 = 0.7123 | 1.07
x1 = 0.768 | 1.073
x1 = 0.8002 | 1.078
x1 = 0.8852 | 1.091
x1 = 0.9472 | 1.126

CC(=O)OCC(COC(C)=O)OC(C)=O + CCCCO
viscosity [mPa·s], 101.33 kPa
Details | x1 = 0.1 | x1 = 0.2 | x1 = 0.3 | x1 = 0.4 | x1 = 0.5 | x1 = 0.6 | x1 = 0.7 | x1 = 0.8 | x1 = 0.9
298 K | 2.4 | 2.7 | 3.12 | 3.71 | 4.5 | 5.57 | 6.99 | 9.02 | 11.93
303 K | 2.11 | 2.34 | 2.69 | 3.17 | 3.82 | 4.65 | 5.79 | 7.34 | 9.49
308 K | 1.87 | 2.06 | 2.36 | 2.75 | 3.27 | 3.96 | 4.86 | 6.07 | 7.72
313 K | 1.67 | 1.83 | 2.07 | 2.4 | 2.84 | 3.41 | 4.15 | 5.1 | 6.39

CCCC#N + CCCCO
viscosity [mPa·s], 101.33 kPa
Details | x2 = 0.1001 | x2 = 0.1981 | x2 = 0.2994 | x2 = 0.3979 | x2 = 0.4953 | x2 = 0.5961 | x2 = 0.6981 | x2 = 0.7984 | x2 = 0.8991
298.15 K | 0.58 | 0.623 | 0.684 | 0.764 | 0.869 | 1.012 | 1.211 | 1.482 | 1.885
308.15 K | 0.515 | 0.547 | 0.596 | 0.66 | 0.741 | 0.852 | 1.003 | 1.208 | 1.506
318.15 K | 0.461 | 0.487 | 0.526 | 0.575 | 0.64 | 0.726 | 0.842 | 1.002 | 1.221

Brc1ccccc1 + CCCCOC(C)=O
viscosity [mPa·s], 101 kPa
Details | 298.15 K | 308.15 K
x2 = 0.0489 | 0.919 | 0.88
x2 = 0.1488 | 0.737 | 0.746
x2 = 0.2514 | 0.615 | 0.649
x2 = 0.3499 | 0.54 | 0.584
x2 = 0.4493 | 0.495 | 0.541
x2 = 0.4965 | 0.482 | 0.526
x2 = 0.5512 | 0.474 | 0.515
x2 = 0.6501 | 0.474 | 0.505
x2 = 0.7497 | 0.496 | 0.51
x2 = 0.8499 | 0.542 | 0.53
x2 = 0.9226 | 0.595 | 0.556

CCCCn1cc[n+](C)c1.O=S(=O)([N-]S(=O)(=O)C(F)(F)F)C(F)(F)F + CCCCn1cc[n+](C)c1.F[B-](F)(F)F
Details | viscosity [mPa·s]
323.15 K, 100 kPa, x1 = 0.751 | 23.85

CCCCn1cc[n+](C)c1.O=S(=O)([N-]S(=O)(=O)C(F)(F)F)C(F)(F)F + CCCCn1cc[n+](C)c1.F[P-](F)(F)(F)(F)F
Details | viscosity [mPa·s]
318.15 K, 100 kPa, x1 = 0.25 | 58.45
